Measured values published in PubChem BioAssay (NCI).
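Interpolation was linear, between the two tested concentrations surrounding the appropriate level; five concentrations were tested over 48 hours in 96-well plates. Abbreviation: GI50, concentration required for 50% inhibition of growth. Definition used: TGI = concentration required for complete inhibition of growth.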

Experiments:
Experiment in all cases: growth of human tumour cells (NCI), 48 h
[1] = test system: UACC-62 melanoma
[2] = test system: HOP-62 NSCLC
[3] = test system: 786-0 renal
[4] = test system: SF-268 CNS
[5] = test system: NCI-H522 lung
[6] = test system: DU-145 prostate
[7] = test system: U251 CNS
[8] = test system: MDA-MB-435
[9] = test system: CCRF-CEM leukemia
[10] = test system: MOLT-4 leukemia
[11] = test system: K-562 leukemia
[12] = test system: UACC-257 melanoma
[13] = test system: MDA-MB-231 breast
[14] = test system: RPMI-8226 leukemia
[15] = test system: KM12 colon
[16] = test system: HOP-92 NSCLC
[17] = test system: SF-539 CNS
[18] = test system: SNB-19 CNS
[19] = test system: A498 renal
[20] = test system: T-47D breast
[21] = test system: NCI/ADR-RES ovarian
[22] = test system: SNB-75 CNS
[23] = test system: SR leukemia
[24] = test system: SK-MEL-28 melanoma
[25] = test system: RXF 393 renal
[26] = test system: NCI-H23 lung
[27] = test system: PC-3 prostate
[28] = test system: HCC-2998 colon
[29] = test system: ACHN renal
[30] = test system: UO-31 renal
[31] = test system: HS 578T breast
[32] = test system: CAKI-1 renal
[33] = test system: BT-549 breast
[34] = test system: A549 NSCLC
[35] = test system: SF-295 CNS
[36] = test system: TK-10 renal
[37] = test system: EKVX NSCLC
[38] = test system: OVCAR-4 ovarian
[39] = test system: SK-MEL-2 melanoma
[40] = test system: MCF7 breast
[41] = test system: NCI-H460 lung
[42] = test system: OVCAR-5 ovarian
[43] = test system: OVCAR-3 ovarian
[44] = test system: HT29 colon
[45] = test system: SK-OV-3 ovarian
[46] = test system: SW-620 colon
[47] = test system: COLO 205 colon
[48] = test system: SK-MEL-5 melanoma
[49] = test system: LOX IMVI melanoma
[50] = test system: HCT-15 colon
[51] = test system: MALME-3M melanoma
[52] = test system: HCT-116 colon
[53] = test system: HL-60(TB) leukemia
[54] = test system: IGROV1 ovarian
[55] = test system: OVCAR-8 ovarian
[56] = test system: SN12C renal

Compound: O=C(OCc1nc2nc(Cl)nc(N3CCOCC3)c2[nH]1)n1ccnc1
- GI50 [1]: 1.55 µM
- TGI [1]: 2.94 µM
- GI50 [2]: 1.64 µM
- TGI [2]: 4.78 µM
- GI50 [3]: 1.84 µM
- TGI [3]: 3.98 µM
- GI50 [4]: 1.74 µM
- TGI [4]: 3.6 µM
- GI50 [5]: 1.71 µM
- TGI [5]: 4.38 µM
- GI50 [6]: 1.59 µM
- TGI [6]: 3.18 µM
- GI50 [7]: 1.96 µM
- TGI [7]: 4.32 µM
- GI50 [8]: 1.32 µM
- TGI [8]: 2.75 µM
- GI50 [9]: 1.17 µM
- TGI [9]: 6.92 µM
- GI50 [10]: 2.29 µM
- TGI [10]: 6.47 µM
- GI50 [11]: 1.68 µM
- TGI [11]: 8.1 µM
- GI50 [12]: 1.9 µM
- TGI [12]: 3.94 µM
- GI50 [13]: 1.63 µM
- TGI [13]: 3.38 µM
- GI50 [14]: 0.582 µM
- TGI [14]: 3.32 µM
- GI50 [15]: 1.88 µM
- TGI [15]: 4.72 µM
- GI50 [16]: 1.17 µM
- TGI [16]: 3.15 µM
- GI50 [17]: 1.48 µM
- TGI [17]: 2.82 µM
- GI50 [18]: 2.42 µM
- TGI [18]: 6.46 µM
- GI50 [19]: 2.9 µM
- TGI [19]: 9.83 µM
- GI50 [20]: 1.88 µM
- TGI [20]: 4.48 µM
- GI50 [21]: 2.57 µM
- TGI [21]: 8.84 µM
- GI50 [22]: 1.04 µM
- TGI [22]: 3.49 µM
- GI50 [23]: 1.09 µM
- TGI [23]: 5.09 µM
- GI50 [24]: 1.74 µM
- TGI [24]: 3.24 µM
- GI50 [25]: 1.61 µM
- TGI [25]: 3.06 µM
- GI50 [26]: 2.41 µM
- TGI [26]: 5.69 µM
- GI50 [27]: 1.69 µM
- TGI [27]: 3.65 µM
- GI50 [28]: 2.22 µM
- TGI [28]: 4.16 µM
- GI50 [29]: 1.12 µM
- TGI [29]: 2.32 µM
- GI50 [30]: 1.19 µM
- TGI [30]: 2.42 µM
- GI50 [31]: 1.96 µM
- TGI [31]: 5.37 µM
- GI50 [32]: 1.21 µM
- TGI [32]: 2.84 µM
- GI50 [33]: 2.49 µM
- TGI [33]: 9.49 µM
- GI50 [34]: 3.24 µM
- TGI [34]: 12.9 µM
- GI50 [35]: 10.5 µM
- TGI [35]: 22.2 µM
- GI50 [36]: 1.94 µM
- TGI [36]: 4.05 µM
- GI50 [37]: 2.04 µM
- TGI [37]: 4.66 µM
- GI50 [38]: 1.63 µM
- TGI [38]: 3.38 µM
- GI50 [39]: 1.95 µM
- TGI [39]: 4.51 µM
- GI50 [40]: 1.84 µM
- TGI [40]: 4.91 µM
- GI50 [41]: 1.86 µM
- TGI [41]: 4.02 µM
- GI50 [42]: 1.52 µM
- TGI [42]: 3.07 µM
- GI50 [43]: 1.29 µM
- TGI [43]: 2.79 µM
- GI50 [44]: 1.59 µM
- TGI [44]: 4.33 µM
- GI50 [45]: 3.4 µM
- TGI [45]: 14.3 µM
- GI50 [46]: 1.5 µM
- TGI [46]: 3.32 µM
- GI50 [47]: 1.65 µM
- TGI [47]: 3.84 µM
- GI50 [48]: 1.83 µM
- TGI [48]: 3.35 µM
- GI50 [49]: 0.72 µM
- TGI [49]: 2.17 µM
- GI50 [50]: 2.06 µM
- TGI [50]: 6.45 µM
- GI50 [51]: 1.72 µM
- TGI [51]: 3.22 µM
- GI50 [52]: 0.65 µM
- TGI [52]: 3.29 µM
- GI50 [53]: 1.51 µM
- TGI [53]: 4.55 µM
- GI50 [54]: 1.32 µM
- TGI [54]: 2.64 µM
- GI50 [55]: 2.56 µM
- TGI [55]: 11 µM
- GI50 [56]: 1.38 µM
- TGI [56]: 2.76 µM
